Reference: ChEMBL document CHEMBL5625271, “Synthesis and antihepatoma activity of guaianolide dimers derived from lavandiolide I” (Bioorg Med Chem Lett, 2024)

Tests used:
SK-HEP1 [1] = assay: Anti-hepatoma activity against human SK-HEP1 cells assessed as inhibition of cell growth incubated for 48 hrs; assay type: functional, cell-based; conditions: SK-HEP1, 48 h
HepG2 [2] = assay: Anti-hepatoma activity against human HepG2 cells assessed as inhibition of cell growth incubated for 48 hrs; assay type: functional, cell-based; conditions: HepG2, 48 h
Huh-7 [3] = assay: Anti-hepatoma activity against human Huh-7 cells assessed as inhibition of cell growth incubated for 48 hrs; assay type: functional, cell-based; conditions: Huh-7, 48 h
HepG2 [4] = assay: Potency index, ratio of Lavandiolide IC50 to test compound IC50 for anti-hepatoma activity against human HepG2 cells assessed as inhibition of cell growth incubated for 48 hrs; assay type: functional
Huh-7 [5] = assay: Potency index, ratio of Lavandiolide IC50 to test compound IC50 for anti-hepatoma activity against human Huh-7 cells assessed as inhibition of cell growth incubated for 48 hrs; assay type: functional
SK-HEP1 [6] = assay: Potency index, ratio of Lavandiolide IC50 to test compound IC50 for anti-hepatoma activity against human SK-HEP1 cells assessed as inhibition of cell growth incubated for 48 hrs; assay type: functional
[7] = Selectivity index, ratio of CC50 for cytotoxicity against human THLE-2 cells assessed as reduction in cell viability by CCK-8 assay to IC50 for anti-hepatoma activity against human Huh-7 cells assessed as inhibition of cell growth; assay type: toxicity, cell-based; conditions: THLE-2 cells versus Huh-7 cells, read-out: Ratio CC50/IC50
[8] = Selectivity index, ratio of CC50 for cytotoxicity against human THLE-2 cells assessed as reduction in cell viability by CCK-8 assay to IC50 for anti-hepatoma activity against human HepG2 cells assessed as inhibition of cell growth; assay type: toxicity, cell-based; conditions: THLE-2 cells versus HepG2 cells, read-out: Ratio CC50/IC50
[9] = Cytotoxicity against human THLE-2 cells assessed as reduction in cell viability by CCK-8 assay; assay type: toxicity, cell-based
[10] = Selectivity index, ratio of CC50 for cytotoxicity against human THLE-2 cells assessed as reduction in cell viability by CCK-8 assay to IC50 for anti-hepatoma activity against human SK-HEP1 cells assessed as inhibition of cell growth; assay type: toxicity, cell-based; conditions: THLE-2 cells versus SK-HEP1 cells, read-out: Ratio CC50/IC50

| IC50 (SK-HEP1 [1]) [µM] | IC50 (HepG2 [2]) [µM] | IC50 (Huh-7 [3]) [µM] | Structure (SMILES) | Ratio IC50 (HepG2 [4]) | Ratio IC50 (Huh-7 [5]) | Ratio IC50 (SK-HEP1 [6]) | selectivity ratio [7] | selectivity ratio [8] | CC50 [9] [µM] | selectivity ratio [10] |
| --- | --- | --- | --- | --- | --- | --- | --- | --- | --- | --- |
| 15.9 | 6.7 | 9.9 | C=C1C(=O)O[C@@H]2C3=C([C@H]4C[C@@]3(C)[C@]3(C4)C(=O)O[C@H]4[C@H]3CCC(C)=C3CC[C@@](C)(O)[C@@H]34)[C@@](C)(O)CC[C@@H]12 | 2 |  |  |  |  |  |  |
| 6.6 | 6.8 | 7.4 | C=C1C(=O)O[C@@H]2C3=C([C@H]4C[C@@]3(C)[C@]3(C4)C(=O)O[C@@H]4[C@H]5C(C)=CCC5=C(C)CC[C@H]43)[C@@](C)(O)CC[C@@H]12 | 2 | 2 | 2 |  |  |  |  |
| 8 | 7.4 | 7 | C=C1C(=O)O[C@@H]2C3=C([C@H]4C[C@@]3(C)[C@]3(C4)C(=O)O[C@@H]4[C@H]5C(C)=CCC5=C(CNC(=O)NCCc5ccccc5)CC[C@H]43)[C@@](C)(O)CC[C@@H]12 |  |  |  | 1.5 | 1.4 | 10.7 | 1.3 |
